Results reported in publication PMC7602804 (Nutrients, 2020).
No end group written: not given here.

Columns and labels:
[1] = test system: Caco-2 monolayers; assay: Apical to basolateral transport of milk peptides across Caco-2 monolayers (LC-MS/MS of basolateral medium); type: in vitro ADME, human; conditions: 2.5 h
Procedure: The human colorectal adenocarcinoma cell line, Caco-2, was obtained from DSMZ (Braunschweig, Germany). The cells were grown to 50–60% confluence in Dulbecco’s Modified Eagle Medium (DMEM) Glutamax cell culture medium, supplemented with 10% heat-inactivated fetal bovine serum, 100 units/mL of penicillin and 100 μg/mL of streptomycin (all from Invitrogen, Carlsbad, CA, USA) in a humidified 5% CO2/95% air atmosphere at 37 °C. The cells used in the experiments were between passages 30 and 40.
The Caco-2 cells used for transport studies were seeded in polyethylene terephthalate culture inserts, with a pore size of 0.4 μm and a growth area of 0.33 cm^2 at a density of approximately 25,000 cells/insert. The Caco-2 cells were grown for three weeks on the porous membrane before they were used for transepithelial transport. The integrity of the monolayers was confirmed by measuring the TEER using a Millicell ERS-2 volt ohmmeter. Only Caco-2 monolayers with TEER values above 400 Ω cm^2 were used for the transport analysis.
Following the TEER value measurement, the Caco-2 and PBEC monolayers were gently washed twice with phosphate-buffered saline, and the transport medium (Hanks’ Balanced Salt solution supplemented with 10 mM of HEPES) was added to the apical and basolateral compartments. The inserts were incubated for 15 min or 2.5 h with the purified milk peptides (0.1 mg/mL) or the synthetic PIGSENSEKTTMPLW peptide (2 µg/mL), after which medium from the apical and basolateral compartments were collected for liquid chromatography tandem mass spectrometry (LC-MS/MS) analysis. Inserts incubated with a medium without peptides served as the control in the transport experiments. Membrane integrity was validated by addition of D-[1-^14C]-Mannitol (3.5 µM, 56.8 mCi/mmol) (Perkin Elmer, Waltham, MA, USA) to the upper chamber of the culture inserts with or without milk peptides for 2.5 h. The passive permeability experiments were performed on four or five individual culture inserts. Basolateral samples were mixed with Ultima Gold liquid scintillation fluid (Perkin Elmer) and counted in a Tri-Carb 2810 TR scintillation counter (Perkin Elmer). The apparent permeability coefficient (Papp, cm/s) was determined as Papp = (dQ/dt)/(AC0) where dQ/dt is the steady state flux (cpm/s), A is the surface area of the cell culture insert membrane and C0 is the initial concentration in the apical compartment (cpm/mL).
LC-MS/MS analysis was performed on a TripleTOF 6600 mass spectrometer equipped with an Exigent nanoLC 415 system (AB Sciex, Les Ulis, France). All samples were micro-purified using 3 M Empore C18 discs packed in pipette tips. The lyophilized samples were dissolved in 0.1% formic acid, injected on a trap column (2 cm × 100 µm inner diameter) and separated on an analytical column packed in-house in a pulled emitter (15 cm × 75 µm inner diameter). All columns were packed with ReproSil-Pur C18-AQ 3 µm resin (courtesy of Dr. Marisch, Ammerbuch-Entringen, Germany). Peptides were eluted directly into the mass spectrometer with a linear gradient from 5 to 35% solvent B (0.1% formic acid in acetonitrile) for 20 min with a flowrate of 250 nL/min, followed after 10 min with 100% solvent B. Data files were converted to Mascot Generic Format using the Raw Converter (version 1.1.0.18) (http://fields.scripps.edu/rawconv/) or the AB Sciex MS Data Converter beta 1.1 (AB Sciex, Les Ulis, France). The generated peak lists were searched against the Bos taurus proteome (UniProt database, https://www.uniprot.org)) using an in-house Mascot search engine (Matrix Science, London, UK). The searches were made without specifying a protease and with oxidation (Met) and phosphorylation (ST) as variable modifications. Peptide tolerance was set to 10 ppm and MS/MS tolerance was set to 0.2 Da. […]

[2] = test system: pepsin, then trypsin, chymotrypsin and elastase; assay: In vitro simulation of gastrointestinal digestion; type: in vitro ADME; conditions: 37 °C
Procedure: The purified milk peptides and the synthesized PIGSENSEKTTMPLW and […] peptides were subjected to digestion, essentially as described in [5, 26] with few modifications. The peptides were dissolved in 0.15 M of NaCl with a pH of 2.5 at a concentration of 1 mg/mL and incubated with pepsin from porcine gastric mucosa in a 1:100 w/w enzyme to substrate ratio for 60 min at 37 °C. Before digestion with pancreatic proteases, the sample was lyophilized and washed twice in deionized water. Trypsin and chymotrypsin from a bovine pancreas (Worthington Biochemical Corporation, NJ, USA) (1:100 w/w) and elastase (Worthington) (1:500 w/w) were added in 50 mM of ammonium bicarbonate buffer (pH = 7.6) and the mixture was incubated for 60 min at 37 °C. In digests of the synthesized peptides, aliquots were sampled and analyzed after 5 min, 30 min, 60 min and 270 min incubation with the intestinal enzymes. Bovine milk osteopontin was purified as previously described and incubated with the digestive proteases to validate their activity. The digested milk peptides were separated by RP-HPLC on an Aeris C4 widepore column (Phenomenex, Værløse, Denmark) connected to a Shimadzu (Kyoto, Japan) HPLC system. The peptides were separated in 0.1% TFA (buffer A) and eluted with a gradient of 60% acetonitrile in 0.1% TFA (buffer B) at 40 °C. The gradient was developed over 59 min (0–5 min: 0% buffer B; 5–49 min: 0–98% buffer B; 49–59 min: 98% buffer B) at a flow rate of 0.85 mL/min. The peptides were detected by measuring the absorbance at 226 nm and analyzed by matrix-assisted laser desorption ionization time-of-flight mass spectrometry (MALDI-MS).
MALDI-MS was performed using a Bruker Autoflex III instrument (Bruker Daltonics, Bremen, Germany). The analysis was performed using a saturated solution of α-cyano-4-hydroxycinnamic acid. The instrument was operated in reflected positive ionization mode and calibrated in the mass range of 1000 to 3200 Da using a peptide calibration standard (Bruker Daltonics, Bremen, Germany). The theoretical peptide masses were calculated using the General Protein/Mass Analysis for Windows software (Lighthouse Data, Odense, Denmark).

For PIGSENSEKTTMPLW [PIGSENSEKTTMPLW], the “Peptide identified in the basolateral chamber of Caco-2 monolayers (transported)” value ([1]; Caco-2, 3 weeks on PET inserts 0.4 μm, TEER above 400 Ω cm^2, A-B, mix of 192 purified milk peptides 0.1 mg/mL apical, HBSS + 10 mM HEPES, LC-MS/MS of basolateral medium, identified in two out of three experiments) was “identified in the basolateral chamber”, the “Fate of synthetic peptide during transport over Caco-2 monolayers” value ([1]; synthetic peptide 2 µg/mL apical, LC-MS/MS of basal medium) was “cleaved by carboxypeptidases during the transport” and the “Stability of the synthetic peptide / control in simulated gastrointestinal digestion” value ([2]; 1 mg/mL, pepsin 1:100 w/w, 0.15 M NaCl pH 2.5, 60 min, chymotrypsin 1:100 and elastase 1:500 w/w, 50 mM ammonium bicarbonate pH 7.6, 37 °C, sampled 5, 30, 60 and 270 min, MALDI-MS (osteopontin: SDS-PAGE)) was “observed even after 270 min of digestion”. For the same sequence, the “Resistance to simulated gastrointestinal digestion within the purified milk peptide mix” value ([2]; purified milk peptides 1 mg/mL, pepsin 1:100, pH 2.5, 60 min, chymotrypsin 1:100, elastase 1:500, pH 7.6, 60 min, RP-HPLC fractions, MALDI-MS, before and after digestion) was “observed”.
